Measured values as given in PubChem BioAssay (NCI).
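Interpolation was linear, between the two tested concentrations surrounding the appropriate level; five concentrations were tested over 48 hours in 96-well plates. TGI denotes the concentration required for complete inhibition of growth.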

Columns and labels:
Assay in all cases: NCI-60 cell line screen, 48 h
NCI-H522 lung = tested on: NCI-H522 lung
HCT-116 colon = tested on: HCT-116 colon
EKVX NSCLC = tested on: EKVX NSCLC
A498 renal = tested on: A498 renal
SF-539 CNS = tested on: SF-539 CNS
U251 CNS = tested on: U251 CNS
LOX IMVI melanoma = tested on: LOX IMVI melanoma
OVCAR-4 ovarian = tested on: OVCAR-4 ovarian
RPMI-8226 leukemia = tested on: RPMI-8226 leukemia
UO-31 renal = tested on: UO-31 renal
PC-3 prostate = tested on: PC-3 prostate
UACC-62 melanoma = tested on: UACC-62 melanoma
OVCAR-8 ovarian = tested on: OVCAR-8 ovarian
KM12 colon = tested on: KM12 colon
HS 578T breast = tested on: HS 578T breast
OVCAR-5 ovarian = tested on: OVCAR-5 ovarian
HT29 colon = tested on: HT29 colon
CAKI-1 renal = tested on: CAKI-1 renal
MCF7 breast = tested on: MCF7 breast
SK-OV-3 ovarian = tested on: SK-OV-3 ovarian
786-0 renal = tested on: 786-0 renal
SF-295 CNS = tested on: SF-295 CNS
SK-MEL-5 melanoma = tested on: SK-MEL-5 melanoma
MOLT-4 leukemia = tested on: MOLT-4 leukemia
NCI-H460 lung = tested on: NCI-H460 lung
MDA-N = tested on: MDA-N
SF-268 CNS = tested on: SF-268 CNS
CCRF-CEM leukemia = tested on: CCRF-CEM leukemia
SNB-75 CNS = tested on: SNB-75 CNS
HCT-15 colon = tested on: HCT-15 colon
UACC-257 melanoma = tested on: UACC-257 melanoma
NCI-H226 lung = tested on: NCI-H226 lung
OVCAR-3 ovarian = tested on: OVCAR-3 ovarian
IGROV1 ovarian = tested on: IGROV1 ovarian
BT-549 breast = tested on: BT-549 breast
SNB-19 CNS = tested on: SNB-19 CNS
MDA-MB-435 = tested on: MDA-MB-435
ACHN renal = tested on: ACHN renal
SW-620 colon = tested on: SW-620 colon
M14 melanoma = tested on: M14 melanoma
HOP-62 NSCLC = tested on: HOP-62 NSCLC
MDA-MB-231 breast = tested on: MDA-MB-231 breast
TK-10 renal = tested on: TK-10 renal
NCI-H23 lung = tested on: NCI-H23 lung
SN12C renal = tested on: SN12C renal
MALME-3M melanoma = tested on: MALME-3M melanoma
A549 NSCLC = tested on: A549 NSCLC
RXF 393 renal = tested on: RXF 393 renal
SK-MEL-2 melanoma = tested on: SK-MEL-2 melanoma
DU-145 prostate = tested on: DU-145 prostate
NCI/ADR-RES ovarian = tested on: NCI/ADR-RES ovarian
SK-MEL-28 melanoma = tested on: SK-MEL-28 melanoma
K-562 leukemia = tested on: K-562 leukemia
COLO 205 colon = tested on: COLO 205 colon
T-47D breast = tested on: T-47D breast
HOP-92 NSCLC = tested on: HOP-92 NSCLC
SR leukemia = tested on: SR leukemia
HL-60(TB) leukemia = tested on: HL-60(TB) leukemia
HCC-2998 colon = tested on: HCC-2998 colon

Work on `Cc1nnc2sc(NN)nn12` yielded a TGI (NCI-H522 lung) greater than 100 µM, a TGI (HCT-116 colon) greater than 100 µM and a TGI (EKVX NSCLC) greater than 100 µM. The TGI (A498 renal) was greater than 100 µM, the TGI (SF-539 CNS) was greater than 100 µM and the TGI (U251 CNS) was greater than 100 µM. The TGI (LOX IMVI melanoma) was greater than 100 µM, the TGI (OVCAR-4 ovarian) was greater than 100 µM and the TGI (RPMI-8226 leukemia) was greater than 100 µM. It also gave a TGI (UO-31 renal) greater than 100 µM, a TGI (PC-3 prostate) greater than 100 µM and a TGI (UACC-62 melanoma) greater than 100 µM. It also gave a TGI (OVCAR-8 ovarian) greater than 100 µM, a TGI (KM12 colon) greater than 100 µM and a TGI (HS 578T breast) greater than 100 µM. For the same compound, the TGI (OVCAR-5 ovarian) was greater than 100 µM, the TGI (HT29 colon) was greater than 100 µM and the TGI (CAKI-1 renal) was greater than 100 µM. For the same compound, the TGI (MCF7 breast) was greater than 100 µM, the TGI (SK-OV-3 ovarian) was greater than 100 µM and the TGI (786-0 renal) was greater than 100 µM. For the same compound, the TGI (SF-295 CNS) was greater than 100 µM, the TGI (SK-MEL-5 melanoma) was greater than 100 µM and the TGI (MOLT-4 leukemia) was 31.6 µM. For the same compound, the TGI (NCI-H460 lung) was greater than 100 µM, the TGI (MDA-N) was greater than 100 µM and the TGI (SF-268 CNS) was greater than 100 µM. For the same compound, the TGI (CCRF-CEM leukemia) was greater than 100 µM, the TGI (SNB-75 CNS) was greater than 100 µM and the TGI (HCT-15 colon) was greater than 100 µM. For the same compound, the TGI (UACC-257 melanoma) was greater than 100 µM, the TGI (NCI-H226 lung) was greater than 100 µM and the TGI (OVCAR-3 ovarian) was greater than 100 µM. For the same compound, the TGI (IGROV1 ovarian) was greater than 100 µM, the TGI (BT-549 breast) was greater than 100 µM and the TGI (SNB-19 CNS) was greater than 100 µM. The TGI (MDA-MB-435) was greater than 100 µM, the TGI (ACHN renal) was greater than 100 µM and the TGI (SW-620 colon) was greater than 100 µM. The TGI (M14 melanoma) was greater than 100 µM, the TGI (HOP-62 NSCLC) was greater than 100 µM and the TGI (MDA-MB-231 breast) was greater than 100 µM. For the same compound, the TGI (TK-10 renal) was greater than 100 µM, the TGI (NCI-H23 lung) was greater than 100 µM and the TGI (SN12C renal) was greater than 100 µM. The TGI (MALME-3M melanoma) was greater than 100 µM, the TGI (A549 NSCLC) was greater than 100 µM and the TGI (RXF 393 renal) was greater than 100 µM. For the same compound, the TGI (SK-MEL-2 melanoma) was greater than 100 µM, the TGI (DU-145 prostate) was greater than 100 µM and the TGI (NCI/ADR-RES ovarian) was greater than 100 µM. For the same compound, the TGI (SK-MEL-28 melanoma) was greater than 100 µM, the TGI (K-562 leukemia) was greater than 100 µM and the TGI (COLO 205 colon) was greater than 100 µM. It also gave a TGI (T-47D breast) greater than 100 µM.

In the case of `NCCN1C(=O)CN=C(c2ccc(Cl)cc2)c2cc(Cl)ccc21`, the TGI (NCI-H522 lung) is reported as 37.3 µM, the TGI (HCT-116 colon) is reported as 30.1 µM and the TGI (EKVX NSCLC) is reported as 84.5 µM. For the same compound, the TGI (A498 renal) was 33.8 µM, the TGI (SF-539 CNS) was 34.1 µM and the TGI (U251 CNS) was 31.5 µM. It also gave a TGI (LOX IMVI melanoma) of 32.4 µM, a TGI (OVCAR-4 ovarian) of 32.1 µM and a TGI (HOP-92 NSCLC) of 39.7 µM. It also gave a TGI (RPMI-8226 leukemia) of 36.4 µM, a TGI (UO-31 renal) of 27.3 µM and a TGI (PC-3 prostate) of 30.1 µM. The TGI (UACC-62 melanoma) was 32.2 µM, the TGI (OVCAR-8 ovarian) was 32.2 µM and the TGI (KM12 colon) was 31.3 µM. The TGI (HS 578T breast) was 35.8 µM, the TGI (OVCAR-5 ovarian) was 30.9 µM and the TGI (HT29 colon) was 36 µM. It also gave a TGI (CAKI-1 renal) of 32 µM, a TGI (SK-OV-3 ovarian) of 47.6 µM and a TGI (786-0 renal) of 30.4 µM. For the same compound, the TGI (SF-295 CNS) was greater than 100 µM, the TGI (SK-MEL-5 melanoma) was 31.4 µM and the TGI (MOLT-4 leukemia) was 73.8 µM. The TGI (NCI-H460 lung) was 34.4 µM, the TGI (MDA-N) was 31.4 µM and the TGI (SF-268 CNS) was 30.4 µM. The TGI (SR leukemia) was 40.7 µM, the TGI (CCRF-CEM leukemia) was 64.2 µM and the TGI (SNB-75 CNS) was 30.7 µM. It also gave a TGI (HCT-15 colon) of 34.7 µM, a TGI (UACC-257 melanoma) of 34.9 µM and a TGI (NCI-H226 lung) of 31 µM. It also gave a TGI (OVCAR-3 ovarian) of 29.3 µM, a TGI (IGROV1 ovarian) of 27.1 µM and a TGI (BT-549 breast) of 30.3 µM. The TGI (SNB-19 CNS) was 45.6 µM, the TGI (MDA-MB-435) was 28.3 µM and the TGI (ACHN renal) was 33 µM. For the same compound, the TGI (SW-620 colon) was 43 µM, the TGI (M14 melanoma) was 30.3 µM and the TGI (HOP-62 NSCLC) was 31.8 µM. The TGI (MDA-MB-231 breast) was 30.5 µM, the TGI (TK-10 renal) was 30.5 µM and the TGI (NCI-H23 lung) was 37.1 µM. For the same compound, the TGI (SN12C renal) was 62.9 µM, the TGI (MALME-3M melanoma) was 29.7 µM and the TGI (A549 NSCLC) was 32.2 µM. It also gave a TGI (RXF 393 renal) of 24.5 µM, a TGI (SK-MEL-2 melanoma) of 31.8 µM and a TGI (HL-60(TB) leukemia) of 37.7 µM. The TGI (DU-145 prostate) was 34.8 µM, the TGI (NCI/ADR-RES ovarian) was 32.8 µM and the TGI (SK-MEL-28 melanoma) was greater than 100 µM. For the same compound, the TGI (K-562 leukemia) was 34.8 µM, the TGI (HCC-2998 colon) was 31.8 µM and the TGI (COLO 205 colon) was 38.7 µM. The TGI (T-47D breast) was 59.3 µM.
